Measurements from PubChem BioAssay (NCI).
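Results reflect a 48-hour exposure of cells in 96-well plates to compound at five concentrations. Definition used: TGI = concentration required for complete inhibition of growth.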

Columns and labels:
Assay in all cases: growth of human tumour cells (NCI), 48 h
MDA-MB-231 breast = system: MDA-MB-231 breast
OVCAR-3 ovarian = system: OVCAR-3 ovarian
SW-620 colon = system: SW-620 colon
MOLT-4 leukemia = system: MOLT-4 leukemia
HOP-62 NSCLC = system: HOP-62 NSCLC
SN12C renal = system: SN12C renal
SF-539 CNS = system: SF-539 CNS
SK-OV-3 ovarian = system: SK-OV-3 ovarian
HOP-92 NSCLC = system: HOP-92 NSCLC
NCI-H460 lung = system: NCI-H460 lung
HS 578T breast = system: HS 578T breast
SK-MEL-2 melanoma = system: SK-MEL-2 melanoma
DU-145 prostate = system: DU-145 prostate
SF-268 CNS = system: SF-268 CNS
BT-549 breast = system: BT-549 breast
SNB-19 CNS = system: SNB-19 CNS
HCT-116 colon = system: HCT-116 colon
RPMI-8226 leukemia = system: RPMI-8226 leukemia
SNB-75 CNS = system: SNB-75 CNS

| Compound | TGI (MDA-MB-231 breast) [µM] | TGI (OVCAR-3 ovarian) [µM] | TGI (SW-620 colon) [µM] | TGI (MOLT-4 leukemia) [µM] | TGI (HOP-62 NSCLC) [µM] | TGI (SN12C renal) [µM] | TGI (SF-539 CNS) [µM] | TGI (SK-OV-3 ovarian) [µM] | TGI (HOP-92 NSCLC) [µM] | TGI (NCI-H460 lung) [µM] | TGI (HS 578T breast) [µM] | TGI (SK-MEL-2 melanoma) [µM] | TGI (DU-145 prostate) [µM] | TGI (SF-268 CNS) [µM] | TGI (BT-549 breast) [µM] | TGI (SNB-19 CNS) [µM] | TGI (HCT-116 colon) [µM] | TGI (RPMI-8226 leukemia) [µM] | TGI (SNB-75 CNS) [µM] |
| --- | --- | --- | --- | --- | --- | --- | --- | --- | --- | --- | --- | --- | --- | --- | --- | --- | --- | --- | --- |
| CC[C@H](C)C1=C(OC(C)=O)[N@+]2([O-])Oc3ccc(-c4c(O)c(O)c(-c5ccc(OC(C)=O)cc5)c(OC(C)=O)c4OC(C)=O)cc3O[C@]2([C@@H](C)CC)C(=O)N1O | > 50 | 37.5 | 34.5 | > 50 | > 50 | > 50 | > 50 | > 50 | 23 | > 50 | > 50 | > 50 | > 50 | > 50 | > 50 | > 50 | 19.5 | 25.5 |  |
| Cn1c2c(c3ccccc31)CCN=C2C1CCCOC1=O (stereo not drawn) | > 100 | > 100 | > 100 |  | > 100 | > 100 | > 100 |  | > 100 | > 100 | > 100 | > 100 | > 100 | > 100 | > 100 | > 100 | > 100 |  | > 100 |
| Cn1nc2ccc([N+](=O)[O-])cc2[n+]1[O-] | > 100 | > 100 |  | > 100 | > 100 | > 100 | > 100 | > 100 |  | > 100 | > 100 | > 100 | > 100 |  | > 100 | > 100 | > 100 |  | > 100 |
| COC1=N[C@H](C(C)C)C(OC)=N[C@H]1Cc1ccc(C[C@@H]2N=C(OC)[C@@H](C(C)C)N=C2OC)s1 | > 100 | > 100 | > 100 | 41 | > 100 | > 100 | > 100 | > 100 | > 100 | > 100 | > 100 | 49.3 | > 100 | > 100 | > 100 | > 100 | > 100 |  | > 100 |
| O=C(O)c1nc2ccc(Cl)cc2[nH]c1=O | > 100 | > 100 | > 100 | > 100 | > 100 | > 100 | > 100 | > 100 | > 100 | > 100 | > 100 | > 100 | > 100 | > 100 | > 100 | > 100 | > 100 | > 100 |  |
| N#Cc1cc2c(cc1C#N)/C(=N\c1cccc(N)n1)N=C2Nc1cccc(N)n1 | 40.9 | > 100 | 60.1 | > 100 | 70.2 | > 100 | 43.2 | 42.4 |  | > 100 | > 100 | > 100 | > 100 | 49.2 | 84.3 | > 100 | 26.7 | > 100 | 76.1 |
| CCOC(=O)c1nc2ccccc2nc1NCc1ccc(OC)c(OC)c1 | > 100 | > 100 | > 100 | > 100 | > 100 | > 100 | > 100 | > 100 | > 100 | > 100 | > 100 |  | > 100 | > 100 | > 100 |  | > 100 | > 100 | > 100 |
| CNCCN[C@@H]1c2cc3c(cc2[C@@H](c2cc(OC)c(O)c(OC)c2)[C@H]2C(=O)OC[C@@H]21)OCO3 | 2.71 | 4.17 | > 100 | 0.0587 | 0.678 | 0.793 | 0.167 | 1.52 |  |  | 1.34 | 1.79 | 1.57 | > 25.6 | 0.814 | 11.9 | 5.27 | 0.634 | 1.12 |
| CC(C)=NNc1snnc1C(N)=O | > 100 | > 100 |  | > 100 | > 100 | > 100 | > 100 | > 100 |  |  | > 100 | > 100 | > 100 | > 100 | > 100 | > 100 | > 100 | > 100 | > 100 |
| O/N=C(/C(Cl)=C(Cl)Cl)C(Cl)Cl | 40 | 38.6 | 38.8 | 37.1 | 46.9 | 34.1 | 44.9 | 74.7 |  | > 100 | 61.3 |  | 97.4 | 36.3 | 41.4 | > 100 | 34.8 | 50.2 | 43.7 |
| Cc1c[nH]c(C(=O)O)c1-c1cccn1-c1ccc(Cl)cc1[N+](=O)[O-] | > 100 | > 100 | > 100 | > 100 | > 100 | > 100 | > 100 | > 100 | > 100 | > 100 | > 100 | > 100 | > 100 | > 100 | > 100 |  | > 100 |  | > 100 |
| C=C1CCCC(C)(C)[C@H]1C/C=C1\CCOC1=O | 31.6 | 34.8 | 35.2 | 38.9 | 39.9 | 35.2 | 34.5 | 57 | 26.6 | 24.4 | 44.3 | > 100 | 26.2 | 23.9 | 26.9 | 30.7 | 25.8 | > 100 |  |
| COC(=O)[C@H](Cc1ccccc1)NC(=O)N(CCC#N)CCCCN(CCC#N)C(=O)N[C@@H](Cc1ccccc1)C(=O)OC | > 100 | > 100 | > 100 | > 100 | > 100 | > 100 |  | > 100 | > 100 | > 100 | > 100 | > 100 | > 100 | > 100 | > 100 | > 100 | > 100 | > 100 | > 79.1 |
